Results on two compounds are retold here after patent publication US8030547B2, “Gene coding for acetolactate synthase” (priority 2002, dated 2011).

pIC50: −log10 of the molar value. Like-named read-outs stand apart in the source and are kept apart here. A value given as a limit tells only on which side of the number the result lay.

Common to all, as to type: biochemical, rice (Oryza sativa var. Kinmaze)
For experiment [1], the target named is T1, GST fusion wild type ALS protein (Oryza sativa subsp. japonica, UniProt Q6K2E8).
T1 construct: an expression vector having the full-length wild type ALS cDNA incorporated into the Eco RI site of pGEX-2T; made in house; host or cells: E. coli JM109, pGEX-2T(ALS-wild); crude supernatant
Nature of the experiment: Herbicide sensitivity of ALS protein expressed in E. coli (crude enzyme solution), wild type. The conditions noted are these: 37° C., 30 minutes, 10 mM valine, read-out: I50. The protocol: (§1) ALS activity resulting from the mutant ALS protein contained in the eluted fractions apportioned into each test tube for apportioning was measured as follows. A reaction solution to be used in a measurement reaction was prepared by mixing an eluted fraction to be measured with a solution comprising 20 mM sodium pyruvate, 0.5 mM TPP, 0.5 mM MgCl2, 10 μM FAD and 20 mM potassium phosphate buffer (pH 7.5). One ml of this reaction solution was used. After the eluted fraction to be measured was added, the measurement reaction was performed at 30° C. for 40 to 60 minutes. Then, the reaction was stopped by addition of 0.1 ml of 6N sulfuric acid (or 0.25 N sodium hydroxide).
(§2) After the reaction was stopped, the reaction solution was incubated at 60° C. for 10 minutes, thereby converting acetolactate contained in the reaction solution to acetoin.
Then, to quantify acetoin contained in the reaction solution, 1 ml of 0.5% (w/v) creatine and 1 ml of 5% (w/v) α-naphthol dissolved in 2.5 N sodium hydroxide was added to the reaction solution, followed by incubation at 37° C. for 10 minutes. Acetoin was then quantified by color comparison of the absorbance (at 525 nm) of the reaction solution, thereby evaluating ALS activity. In addition, since the reaction solution contained a small amount of sodium pyruvate, reaction time 0 was used as control. […]

The target of experiment [2] is T2, GST fusion P171H mutant ALS protein (Oryza sativa subsp. japonica, UniProt Q6K2E8, P171H).
T2 construct: an expression vector having the full-length wild type ALS cDNA incorporated into the Eco RI site of pGEX-2T; made in house; host or cells: E. coli JM109, pGEX-2T(ALS P171H mutant); crude supernatant
The experiment can be described thus: Herbicide sensitivity of ALS protein expressed in E. coli (crude enzyme solution), P171H. The conditions noted are these: for RS ratio: P171H mutant vs wild type. As to the method: as §1, §2
(§3) Then, to quantify acetoin contained in the reaction solution, 1 ml of 0.5% (w/v) creatine and 1 ml of 5% (w/v) α-naphthol dissolved in 2.5 N sodium hydroxide was added to the reaction solution, followed by incubation at 37° C. for 10 minutes. Acetoin was then quantified by color comparison of the absorbance (at 525 nm) of the reaction solution, thereby evaluating ALS activity. In addition, since the reaction solution contained a small amount of sodium pyruvate, reaction time 0 was used as control.
(§4) E. coli transformed with pGEX-2T(ALS-wild) constructed in Example 3(5), E. coli transformed with pGEX-2T(ALS-W548L mutant) constructed in Example 5, E. coli transformed with pGEX-2T(ALS-S627I mutant) constructed in Example 5, E. coli transformed with pGEX-2T(ALS P171H mutant) constructed in Example 6, E. coli transformed with pGEX-2T(ALS R172S mutant) constructed in Example 6, E. coli transformed with pGEX-2T(ALS P171H, R172S mutant) constructed in Example 7, E. coli transformed with pGEX-2T(ALS-P171H, W548L mutant) constructed in Example 8, E. coli transformed with pGEX-2T(ALS-P171H, S627I mutant) constructed in Example 8, and E. coli transformed with pGEX-2T(ALS-P171H, W548L, S627I mutant) constructed in Example 9 were respectively shake-cultured (pre-culture) at 27° C. in 2 ml of LB liquid medium containing ampicillin. These types of E. coli were respectively cultured in 250 ml of LB liquid medium containing ampicillin using 1 ml of the pre-culture solution. After culturing overnight, 1 mM IPTG was added to the media, and then culturing was performed for a further 3 to 4 hours, so that the expression of GST fusion protein was induced. In addition, the cells were stored at −80° C. after washing.
(§5) Preparation and purification of ALS from E. coli were performed by the following method. First, the pellet of the transformant E. coli stored at −80° C. was suspended in ALS extraction buffer (potassium phosphate buffer (pH 7.5) containing 30% glycerol and 0.5 mM MgCl2). Specifically, 2.5 ml of the buffer was added to the pellet obtained from 50 ml of the culture solution. The suspension was subjected to ultrasonication (Heat Systems-Ultrasonics, Sonicator W-225R, micro chip, output control 8, interval of approximately 1 second, twice (40 seconds each)), and subjected to centrifugation at 15000×g, 4° C. for 20 minutes, thereby obtaining the supernatant as a crude enzyme solution.
(§6) Herbicide sensitivity of the wild type ALS protein and that of mutant ALS protein were examined using the 9 types of crude enzyme solutions obtained in Example 10. Herbicide sensitivity test was performed according to procedures almost the same as those in Example 2. However, in this example, reaction temperature was 37° C., reaction time was 30 minutes, and 10 mM valine was added to the reaction solution to inhibit ALS activity derived from E. coli. Further, three types of herbicides, bispyribac-sodium, pyrithiobac-sodium, and pyriminobac, were used as PC herbicides; chlorsulfuron was used as a sulfonylurea herbicide; and imazaquin was used as an imidazolinon herbicide. […]

For experiment [3], the target named is T3, GST fusion W548L mutant ALS protein (Oryza sativa subsp. japonica, UniProt Q6K2E8, W548L).
T3 construct: an expression vector having the full-length wild type ALS cDNA incorporated into the Eco RI site of pGEX-2T; made in house; host or cells: E. coli JM109, pGEX 2T(ALS-W548L mutant); crude supernatant
Nature of the experiment: Herbicide sensitivity of ALS protein expressed in E. coli (crude enzyme solution), W548L. The conditions noted are these: for RS ratio: W548L mutant vs wild type. As to the method:
as §1, §2, §3, §4, §5, §6

In experiment [4] the target is T4, GST fusion S627I mutant ALS protein (Oryza sativa subsp. japonica, UniProt Q6K2E8, S627I).
T4 construct: an expression vector having the full-length wild type ALS cDNA incorporated into the Eco RI site of pGEX-2T; made in house; host or cells: E. coli JM109, pGEX 2T(ALS-S627I mutant); crude supernatant
The experiment can be described thus: Herbicide sensitivity of ALS protein expressed in E. coli (crude enzyme solution), S627I. The conditions noted are these: for RS ratio: S627I mutant vs wild type. The protocol: as §1, §2, §3, §4, §5, §6

The target of experiment [5] is T5, GST fusion P171H/W548L mutant ALS protein (Oryza sativa subsp. japonica, UniProt Q6K2E8, P171H/W548L).
T5 construct: made in house; host or cells: E. coli, pGEX-2T(ALS-P171H, W548L mutant); crude supernatant
The experiment can be described thus: Herbicide sensitivity of ALS protein expressed in E. coli (crude enzyme solution), P171H/W548L. The conditions noted are these: for RS ratio: P171H/W548L mutant vs wild type; for Predicted RS ratio: product of RS ratios of the 1-point mutants. The protocol:
as §1, §2, §3, §4, §5, §6

Experiment [6] addresses T6, GST fusion P171H/R172S mutant ALS protein (Oryza sativa subsp. japonica, UniProt Q6K2E8, P171H/R172S).
T6 construct: made in house; host or cells: E. coli JM109, pGEX-2T(ALS P171H, R172S mutant); crude supernatant
Nature of the experiment: Herbicide sensitivity of ALS protein expressed in E. coli (crude enzyme solution), P171H/R172S. The following applies: for RS ratio: P171H/R172S mutant vs wild type; for Predicted RS ratio: product of RS ratios of the 1-point mutants. As to the method:
as §1, §2, §3, §4, §5, §6

Experiment [7] concerns the target T7, GST fusion R172S mutant ALS protein (Oryza sativa subsp. japonica, UniProt Q6K2E8, R172S).
T7 construct: an expression vector having the full-length wild type ALS cDNA incorporated into the Eco RI site of pGEX-2T; made in house; host or cells: E. coli JM109, pGEX-2T(ALS R172S mutant); crude supernatant
Nature of the experiment: Herbicide sensitivity of ALS protein expressed in E. coli (crude enzyme solution), R172S. The following applies: for RS ratio: R172S mutant vs wild type. As to the method:
as §1, §2, §3, §4, §5, §6

Experiment [8] has as its target T8, GST fusion P171H/S627I mutant ALS protein (Oryza sativa subsp. japonica, UniProt Q6K2E8, P171H/S627I).
T8 construct: made in house; host or cells: E. coli, pGEX-2T(ALS-P171H, S627I mutant); crude supernatant
Nature of the experiment: Herbicide sensitivity of ALS protein expressed in E. coli (crude enzyme solution), P171H/S627I. The conditions noted are these: for RS ratio: P171H/S627I mutant vs wild type; for Predicted RS ratio: product of RS ratios of the 1-point mutants. As to the method:
as §1, §2, §3, §4, §5, §6

T7 sequence (Q6K2E8 44-644 R172S): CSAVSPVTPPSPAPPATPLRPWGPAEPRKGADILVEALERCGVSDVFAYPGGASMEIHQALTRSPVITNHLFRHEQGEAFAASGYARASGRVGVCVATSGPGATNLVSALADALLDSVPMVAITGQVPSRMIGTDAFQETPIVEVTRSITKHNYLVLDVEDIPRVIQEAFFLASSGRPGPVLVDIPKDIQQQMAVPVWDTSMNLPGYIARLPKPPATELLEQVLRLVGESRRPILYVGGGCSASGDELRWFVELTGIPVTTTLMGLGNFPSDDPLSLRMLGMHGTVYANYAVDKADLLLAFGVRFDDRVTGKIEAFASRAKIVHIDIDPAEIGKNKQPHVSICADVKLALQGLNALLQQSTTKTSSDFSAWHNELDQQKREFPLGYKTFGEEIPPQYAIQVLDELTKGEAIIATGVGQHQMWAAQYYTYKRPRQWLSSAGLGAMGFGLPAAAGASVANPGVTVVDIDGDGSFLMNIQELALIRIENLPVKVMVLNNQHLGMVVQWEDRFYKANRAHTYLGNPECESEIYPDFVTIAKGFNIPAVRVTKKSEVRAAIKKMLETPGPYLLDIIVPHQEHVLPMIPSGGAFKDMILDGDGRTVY
T8 sequence (Q6K2E8 44-644 P171H/S627I): as the sequence (Q6K2E8 44-644 R172S) above, with P128H, S129R, S584I counted along it
T5 sequence (Q6K2E8 44-644 P171H/W548L): as the sequence (Q6K2E8 44-644 R172S) above, with P128H, S129R, W505L counted along it
T4 sequence (Q6K2E8 44-644 S627I): as the sequence (Q6K2E8 44-644 R172S) above, with S129R, S584I counted along it
T3 sequence (Q6K2E8 44-644 W548L): as the sequence (Q6K2E8 44-644 R172S) above, with S129R, W505L counted along it
T2 sequence (Q6K2E8 44-644 P171H): as the sequence (Q6K2E8 44-644 R172S) above, with P128H, S129R counted along it
T6 sequence (Q6K2E8 44-644 P171H/R172S): as the sequence (Q6K2E8 44-644 R172S) above, with P128H counted along it
T1 sequence (Q6K2E8 44-644): as the sequence (Q6K2E8 44-644 R172S) above, with S129R counted along it

`CON=C(C)c1cccc(Oc2nc(OC)cc(OC)n2)c1C(=O)O` [pyriminobac]: the pIC50 in experiment [1] is 8.10; in experiment [2] (P171H mutant, 37° C., 30 minutes, 10 mM valine, read-out: I50), 7.40; in experiment [3] (W548L mutant, 37° C., 30 minutes, 10 mM valine, read-out: I50), 4.44; in experiment [4] (S627I mutant, 37° C., 30 minutes, 10 mM valine, read-out: I50) it was 4.66; in experiment [6] (P171H/R172S mutant, 37° C., 30 minutes, 10 mM valine, read-out: I50) it was 7.39; in experiment [7] (R172S mutant, 37° C., 30 minutes, 10 mM valine, read-out: I50), 8.04. Also, the RS ratio in experiment [2] is 5; in experiment [3], 4500; in experiment [4] it was 2800; in experiment [5], more than 13000; in experiment [6] it was 5.1; in experiment [7], 1.2. Moreover, the RS ratio in experiment [8] is given as more than 13000. For the same compound, the “RS ratio/ predicted RS ratio” value in experiment [5] (P171H/W548L mutant) is more than 0.57; in experiment [6] (P171H/R172S mutant), 0.85; in experiment [8] (P171H/S627I mutant), more than 0.93. Further, the “inhibition % at the highest concentration among the concentrations tested” value in experiment [5] (P171H/W548L mutant, in 100 μM) stood at 11%; in experiment [8] (P171H/S627I mutant, in 100 μM) it was 21%. The “Predicted RS ratio” value in experiment [5] (P171H/W548L mutant) is listed as 23000; in experiment [6] (P171H/R172S mutant) it was 6; in experiment [8] (P171H/S627I mutant) it was 14000.
For `COc1cc(OC)nc(Sc2cccc(Cl)c2C(=O)O)n1` [pyrithiobac-sodium], the pIC50 in experiment [2] was 7.43; in experiment [4], 5.66; in experiment [6] it was 6.85; in experiment [7] it was 7.96; in experiment [8], 5.03. Besides, the RS ratio in experiment [2] is given as 3.4; in experiment [3] it was more than 9100; in experiment [4], 200; in experiment [5], more than 9100; in experiment [6] it was 13; in experiment [7], 1. Besides, in experiment [8], the RS ratio was 850. Besides, the inhibition at 100 µM amounted to 41% in experiment [3] (read-out: inhibition % at the highest concentration among the concentrations tested, W548L mutant, in 100 μM) and 20% in experiment [5] (read-out: inhibition % at the highest concentration among the concentrations tested, P171H/W548L mutant, in 100 μM). Also, the “Predicted RS ratio” value is reported as more than 31000 in experiment [5] (P171H/W548L mutant), 3.4 in experiment [6] (P171H/R172S mutant) and 680 in experiment [8] (P171H/S627I mutant). Moreover, the “RS ratio/ predicted RS ratio” value is on record as 3.8 in experiment [6] (P171H/R172S mutant) and 1.3 in experiment [8] (P171H/S627I mutant).
